Laboratory results taken from ChEMBL document CHEMBL1157282, “Cytotoxic constituents from the stem bark of Dichapetalum gelonioides collected in the Philippines” (J Nat Prod, 2006).
Converted amounts (≈) assume the structure as drawn.

Tests used:
LNCaP = assay: Cytotoxicity against human LNCaP cells; format: functional; details: read-out: ED50 (the source's name)
[1] = Cytotoxicity against human BC1 cells; format: functional; details: read-out: ED50 (the source's name)
KB [2] = assay: Cytotoxicity against drug-resistant human KB cells in presence of vinblastine; format: functional; details: read-out: ED50 (the source's name)
SW626 = assay: Cytotoxicity against human SW626 cells; format: functional; details: read-out: ED50 (the source's name)
Col2 = assay: Cytotoxicity against human Col2 cells; format: functional; details: read-out: ED50 (the source's name)
Lu1 = assay: Cytotoxicity against human Lu1 cells; format: functional; details: read-out: ED50 (the source's name)
KB [3] = assay: Cytotoxicity against human KB cells; format: functional; details: read-out: ED50 (the source's name)
SK-N-SH = assay: Cytotoxicity against human SKNSH cells; format: functional; details: read-out: ED50 (the source's name)
KB [4] = assay: Cytotoxicity against drug-resistant human KB cells in absence of vinblastine; format: functional; details: read-out: ED50 (the source's name)
[5] = Cytotoxicity against HUVEC cells; format: cell-based; details: human, read-out: ED50 (the source's name)
L1210 = assay: Cytotoxicity against mouse L1210 cells; format: functional
MCF7 = assay: Cytotoxicity against human MCF7 cells; format: functional; details: read-out: ED50 (the source's name)
[6] = Cytotoxicity against human MEL2 cells; format: functional; details: read-out: ED50 (the source's name)
[7] = Cytotoxicity against human MEL1 cells; format: functional; details: read-out: ED50 (the source's name)

Row | Structure (SMILES) | EC50 (LNCaP) | EC50 [1] | EC50 (KB [2]) | EC50 (SW626) | EC50 (Col2) | EC50 (Lu1) | EC50 (KB [3]) | EC50 (SK-N-SH) | EC50 (KB [4]) | CC50 [5] | EC90 (L1210) | EC50 (MCF7) | EC50 [6] | EC50 [7]
1 | CC1=C(O)C(=O)C[C@@H]2[C@@]3(C)CC[C@](C)(C(=O)O)C[C@@H]3CC[C@]12C | 10.8 µg/mL (≈ 33.7 µM) | 12.2 µg/mL (≈ 38.1 µM) | > 20 µg/mL | 15.8 µg/mL (≈ 49.3 µM) | 11.2 µg/mL (≈ 35 µM) | > 20 µg/mL | 16.2 µg/mL (≈ 50.6 µM) | 10.4 µg/mL (≈ 32.5 µM) | > 20 µg/mL |  |  |  |  | 
2 | C/C(=C\[C@H]1C[C@@H]([C@@H]2CC[C@]34C[C@]23C=C[C@@H]2[C@@]3(C)CC=C5C[C@@H](c6ccccc6)OC[C@]5(C)[C@@H]3C[C@@H](O)[C@]24C)C(=O)O1)CO [DICHAPETALIN A] | 7 µg/mL (≈ 12 µM) | > 20 µg/mL | 11.6 µg/mL | 0.2 µg/mL (≈ 0.342 µM) | 6.1 µg/mL (≈ 10.4 µM) | 4.1 µg/mL (≈ 7.01 µM) | 3.6 µg/mL (≈ 6.16 µM) | 6.9 µg/mL (≈ 11.8 µM) | > 20 µg/mL | 5.5 µg/mL (≈ 9.4 µM) | < 0.0001 µg/mL | 2.1 µg/mL (≈ 3.59 µM) |  | 
3 | COc1ccc([C@@H]2CC3=CC[C@]4(C)[C@H]5C=C[C@]67C[C@]6(CC[C@H]7[C@@H]6C[C@H](/C=C(\C)CO)OC6=O)[C@]5(C)[C@H](O)C[C@H]4[C@@]3(C)CO2)cc1 [DICHAPETALIN K] | 2.6 µg/mL (≈ 4.23 µM) |  |  | 3 µg/mL (≈ 4.88 µM) |  | 1 µg/mL (≈ 1.63 µM) |  |  |  | 2.2 µg/mL (≈ 3.58 µM) |  | 1 µg/mL (≈ 1.63 µM) |  | 
4 | COc1ccc([C@@H]2CC3=CC[C@]4(C)[C@H]5C[C@@H](O)[C@]67C[C@]6(CC[C@H]7[C@@H]6C[C@H](/C=C(\C)CO)OC6=O)[C@]5(C)[C@H](O)C[C@H]4[C@@]3(C)CO2)cc1 [DICHAPETALIN J] | 16.4 µg/mL (≈ 25.9 µM) | > 20 µg/mL | > 20 µg/mL | 0.4 µg/mL (≈ 0.632 µM) | 2.1 µg/mL (≈ 3.32 µM) | 14.5 µg/mL (≈ 22.9 µM) | 16.4 µg/mL (≈ 25.9 µM) | 4 µg/mL (≈ 6.32 µM) | > 20 µg/mL |  |  |  |  | 
5 | C/C(=C\[C@H]1C[C@@H]([C@@H]2CC[C@]34C[C@]23CC[C@@H]2[C@@]3(C)CC=C5C[C@@H](c6ccccc6)OC[C@]5(C)[C@@H]3C[C@@H](O)[C@]24C)C(=O)O1)CO [DICHAPETALIN L] | 1.1 µg/mL (≈ 1.87 µM) |  |  | 8.3 µg/mL (≈ 14.1 µM) |  | 1 µg/mL (≈ 1.7 µM) |  |  |  | 4.2 µg/mL (≈ 7.16 µM) |  | 2.1 µg/mL (≈ 3.58 µM) |  | 
6 | C=C1C(=O)C(O)=C[C@@H]2[C@@]3(C)CC[C@](C)(C(=O)O)C[C@@H]3CC[C@]12C | 3.7 µg/mL (≈ 11.6 µM) | 4 µg/mL (≈ 12.6 µM) | 4.3 µg/mL | 5 µg/mL (≈ 15.7 µM) | 2.7 µg/mL (≈ 8.48 µM) | 3.8 µg/mL (≈ 11.9 µM) | 3.7 µg/mL (≈ 11.6 µM) | 9 µg/mL (≈ 28.3 µM) | 5 µg/mL (≈ 15.7 µM) |  |  |  |  | 
7 | C[C@H]1C(=O)CC[C@H]2[C@]3(C)CC[C@@]4(C)[C@@H]5CC(C)(C)CC[C@]5(C)CC[C@]4(C)[C@H]3C[C@@H](O)[C@]12C [ZEYLANOL] |  | > 20 µg/mL | > 20 µg/mL | > 20 µg/mL | > 20 µg/mL | 10.9 µg/mL (≈ 24.6 µM) | > 20 µg/mL | 16.8 µg/mL (≈ 37.9 µM) | > 20 µg/mL |  |  |  |  | 
8 | C/C(=C\[C@H]1C[C@@H]([C@@H]2CC[C@]34C[C@]23[C@H](O)C[C@@H]2[C@@]3(C)CC=C5C[C@@H](c6ccccc6)OC[C@]5(C)[C@@H]3C[C@@H](O)[C@]24C)C(=O)O1)CO [DICHAPETALIN I] | > 20 µg/mL | > 20 µg/mL | > 20 µg/mL | 0.5 µg/mL (≈ 0.829 µM) | 4.1 µg/mL (≈ 6.8 µM) | 7.6 µg/mL (≈ 12.6 µM) | 16.6 µg/mL (≈ 27.5 µM) | 9.9 µg/mL (≈ 16.4 µM) | > 20 µg/mL |  |  |  |  | 
9 | C=C(C)[C@@H]1CC[C@]2(C(=O)O)CC[C@]3(C)[C@H](CC[C@@H]4[C@@]5(C)CC[C@H](O)C(C)(C)[C@@H]5CC[C@]43C)[C@@H]12 [BETULINIC ACID] | > 20 µg/mL | > 20 µg/mL | > 20 µg/mL | > 20 µg/mL | > 20 µg/mL | > 20 µg/mL | > 20 µg/mL | > 20 µg/mL | > 20 µg/mL |  |  |  | 2 µg/mL (≈ 4.38 µM) | 1.1 µg/mL (≈ 2.41 µM)
10 | C=C1C(=O)C(O)=C[C@@H]2[C@@]3(C)CC[C@](C)(C(=O)OC)C[C@@H]3CC[C@]12C | 0.9 µg/mL (≈ 2.71 µM) | 0.6 µg/mL (≈ 1.8 µM) | 1.7 µg/mL | 1.6 µg/mL (≈ 4.81 µM) | 0.8 µg/mL (≈ 2.41 µM) | 1.6 µg/mL (≈ 4.81 µM) | 0.7 µg/mL (≈ 2.11 µM) | 0.8 µg/mL (≈ 2.41 µM) | 1.8 µg/mL (≈ 5.41 µM) |  |  |  |  | 
11 | C[C@H]1C(=O)CC[C@H]2[C@]3(C)CC[C@@]4(C)[C@@H]5CC(C)(C)CC[C@]5(CO)CC[C@]4(C)[C@H]3C[C@@H](O)[C@]12C | > 20 µg/mL | > 20 µg/mL | > 20 µg/mL | > 20 µg/mL | > 20 µg/mL | > 20 µg/mL | > 20 µg/mL | 13 µg/mL (≈ 28.3 µM) | > 20 µg/mL |  |  |  |  | 
